According to patent CN111517978A, “环己烯基-dl-天门冬氨酸衍生物及其制备方法、组合物与用途” (Zhongshan Wanhan Pharmaceutical Co ltd, priority 2020, dated 2020):

Key:
Assay type in all cases: cell-based
Details in all cases: component A (XP or YS) alone
[1] = tested on: Streptococcus intermedius ATCC27335 (中间链球菌ATCC27335); assay: Antibacterial action (MIC, FICI) against Streptococcus intermedius ATCC27335 (Table 20)
[2] = tested on: Micrococcus lysodeikticus 2665 (溶壁微球菌2665); assay: Antibacterial action (MIC, FICI) against Micrococcus lysodeikticus 2665 (Table 4)
[3] = tested on: Serratia marcescens IFO 3736 (黏质沙雷氏菌IFO 3736); assay: Antibacterial action (MIC, FICI) against Serratia marcescens IFO 3736 (Table 10)
[4] = tested on: Clostridium perfringens ATCC13124 (产气荚膜梭状芽孢杆菌ATCC13124)
[5] = tested on: Providencia stuartii 57 (斯氏普罗威登斯菌57); assay: Antibacterial action (MIC, FICI) against Providencia stuartii 57 (Table 12)
[6] = tested on: Escherichia coli ATCC25922 (大肠杆菌ATCC25922); assay: Antibacterial action (MIC, FICI) against Escherichia coli ATCC25922 (Table 7)
[7] = tested on: Propionibacterium acnes ATCC11828 (痤疮丙酸杆菌ATCC11828); assay: Antibacterial action (MIC, FICI) against Propionibacterium acnes ATCC11828 (Table 21)
[8] = tested on: Shigella flexneri 2aEW-10 (福氏志贺氏菌2aEW-10); assay: Antibacterial action (MIC, FICI) against Shigella flexneri 2aEW-10 (Table 15)
[9] = tested on: Stenotrophomonas maltophilia NCTC 13637 (嗜麦芽窄食单胞菌NCTC 13637); assay: Antibacterial action (MIC, FICI) against Stenotrophomonas maltophilia NCTC 13637 (Table 18)
[10] = tested on: Klebsiella pneumoniae NCTC 9632 (肺炎克雷伯菌NCTC 9632); assay: Antibacterial action (MIC, FICI) against Klebsiella pneumoniae NCTC 9632 (Table 9)

Compound CCOC(=O)C1=C[C@@H](OC(CC)CC)[C@H](N)[C@@H](N)C1 [化合物12S, 乙基(3R,4R,5S)-4,5-二氨基-3-(戊-3-基氧基)环己-1-烯-1-羧酸酯] has an MIC_A [1] of 406 ng/mL, an MIC_A [2] of 1027 ng/mL and an MIC_A [3] of 691 ng/mL.
With CCOC(=O)C1=C[C@@H](OC(CC)CC)[C@H](NC(C)=O)[C@@H](N)C1 [化合物4S, 乙基(3R,4R,5S)-4-乙酰氨基-5-氨基-3-(戊-3-基氧基)环己-1-烯-1-羧酸酯] the MIC_A [4] was 762 ng/mL, the MIC_A [5] was 581 ng/mL and the MIC_A [6] was 456 ng/mL.
Work on CCOC(=O)C1=C[C@H](OC(CC)CC)[C@@H](N)[C@H](N)C1 [化合物17S, 乙基(3S,4S,5R)-4,5-二氨基-3-(戊-3-基氧基)环己-1-烯-1-羧酸酯] yielded an MIC_A [4] of 684 ng/mL, an MIC_A [6] of 683 ng/mL and an MIC_A [7] of 969 ng/mL. It also gave an MIC_A [8] of 929 ng/mL and an MIC_A [9] of 447 ng/mL.
Work on CCOC(=O)C1=C[C@H](OC(CC)CC)[C@@H](NC(C)=O)[C@H](NC(CC(=O)O)C(=O)O)C1 (mixture of isomers) [化合物7P, ((1R,5S,6S)-6-乙酰氨基-3-(乙氧基羰基)-5-(戊-3-基氧基)环己-3-烯-1-基)-DL-天门冬氨酸] yielded an MIC_A [10] of 25 ng/mL, an MIC_A [6] of 27 ng/mL and an MIC_A [7] of 10 ng/mL. It also gave an MIC_A [8] of 60 ng/mL.
Compound CCOC(=O)C1=C[C@@H](O)[C@H](N)[C@@H](NC(CC(=O)O)C(=O)O)C1 (mixture of isomers) [化合物14P, ((1S,5R,6R)-6-氨基-3-(乙氧基羰基)-5-羟基环己-3-烯-1-基)-DL-天门冬氨酸] has an MIC_A [3] of 46 ng/mL and an MIC_A [7] of 18 ng/mL.
CCOC(=O)C1=C[C@@H](O)[C@H](NC(C)=O)[C@@H](NC(CC(=O)O)C(=O)O)C1 (mixture of isomers) [化合物13P, ((1S,5R,6R)-6-乙酰氨基-3-(乙氧基羰基)-5-羟基环己-3-烯-1-基)-DL-天门冬氨酸] showed an MIC_A [1] of 22 ng/mL, an MIC_A [2] of 27 ng/mL and an MIC_A [5] of 54 ng/mL. The MIC_A [10] was 55 ng/mL.
For CCC(CC)O[C@@H]1C=C(C(=O)O)C[C@H](NC(CC(=O)O)C(=O)O)[C@H]1N (mixture of isomers) [化合物11P, ((1S,5R,6R)-6-氨基-3-羧基-5-(戊-3-基氧基)环己-3-烯-1-基)-DL-天门冬氨酸], the MIC_A [4] was 22 ng/mL, the MIC_A [5] was 17 ng/mL and the MIC_A [10] was 22 ng/mL. The MIC_A [6] was 7 ng/mL and the MIC_A [9] was 50 ng/mL.
In the case of CCOC(=O)C1=C[C@H](OC(CC)CC)[C@H](NC(C)=O)[C@@H](N)C1 [化合物6S, 乙基(3S,4R,5S)-4-乙酰氨基-5-氨基-3-(戊-3-基氧基)环己-1-烯-1-羧酸酯], the MIC_A [1] is reported as 521 ng/mL, the MIC_A [2] is reported as 556 ng/mL and the MIC_A [3] is reported as 445 ng/mL. The MIC_A [9] was 473 ng/mL.
For CCOC(=O)C1=C[C@@H](O)[C@H](NC(C)=O)[C@@H](N)C1 [化合物13S, 乙基(3R,4R,5S)-4-乙酰氨基-5-氨基-3-羟基环己-1-烯-1-羧酸酯], the MIC_A [1] was 655 ng/mL, the MIC_A [2] was 914 ng/mL and the MIC_A [5] was 1021 ng/mL. The MIC_A [10] was 1081 ng/mL.
For CCC(CC)O[C@@H]1C=C(C(=O)O)C[C@H](NC(C)=O)[C@H]1NC(CC(=O)O)C(=O)O (mixture of isomers) [化合物2P, ((1R,2R,6S)-6-乙酰氨基-4-羧基-2-(戊-3-基氧基)环己-3-烯-1-基)-DL-天门冬氨酸], the MIC_A [1] was 10 ng/mL, the MIC_A [6] was 45 ng/mL and the MIC_A [8] was 22 ng/mL. It also gave an MIC_A [9] of 13 ng/mL.
Compound CCC(CC)O[C@@H]1C=C(C(=O)O)C[C@H](NC(C)=O)[C@H]1N [化合物2S, (3R,4R,5S)-5-乙酰氨基-4-氨基-3-(戊-3-基氧基)环己-1-烯-1-羧酸] has an MIC_A [1] of 493 ng/mL, an MIC_A [6] of 720 ng/mL and an MIC_A [8] of 345 ng/mL. For the same compound, the MIC_A [9] was 879 ng/mL.
With CCOC(=O)C1=C[C@@H](O)[C@H](N)[C@@H](N)C1 [化合物14S, 乙基(3R,4R,5S)-4,5-二氨基-3-羟基环己-1-烯-1-羧酸酯] the MIC_A [3] was 1102 ng/mL and the MIC_A [7] was 701 ng/mL.
In the case of CCOC(=O)C1=C[C@@H](OC(CC)CC)[C@H](N)[C@@H](NC(CC(=O)O)C(=O)O)C1 (mixture of isomers) [化合物12P, ((1S,5R,6R)-6-氨基-3-(乙氧基羰基)-5-(戊-3-基氧基)环己-3-烯-1-基)-DL-天门冬氨酸], the MIC_A [1] is reported as 25 ng/mL, the MIC_A [2] is reported as 30 ng/mL and the MIC_A [3] is reported as 47 ng/mL.
With CCC(CC)O[C@H]1C=C(C(=O)O)C[C@@H](N)[C@@H]1N [化合物16S, (3S,4S,5R)-4,5-二氨基-3-(戊-3-基氧基)环己-1-烯-1-羧酸] the MIC_A [10] was 1179 ng/mL.
For CCC(CC)O[C@@H]1C=C(C(=O)O)C[C@H](N)[C@H]1N [化合物11S, (3R,4R,5S)-4,5-二氨基-3-(戊-3-基氧基)环己-1-烯-1-羧酸], the MIC_A [4] was 482 ng/mL, the MIC_A [5] was 1106 ng/mL and the MIC_A [10] was 650 ng/mL. For the same compound, the MIC_A [6] was 659 ng/mL and the MIC_A [9] was 774 ng/mL.
CCOC(=O)C1=C[C@@H](OC(C)C)[C@H](NC(C)=O)[C@@H](N)C1 [化合物20S, 乙基(3R,4R,5S)-4-乙酰氨基-5-氨基-3-异丙氧基环己-1-烯-1-羧酸酯] gave an MIC_A [6] of 704 ng/mL, an MIC_A [7] of 771 ng/mL and an MIC_A [9] of 1079 ng/mL.
